# According to publication PMC3179935, “Gallus gallus NEU3 sialidase as model to study protein evolution mechanism based on rapid evolving loops” (BMC Biochemistry, 2011):
# Molecular target: T1, Mm NEU3 (Mm NEU3-HA) (Mus musculus, UniProt Q9JMH7)
# T1 construct: HA tag, pcDNAI, transiently expressed in COS7, total cell lysate
# T1 sequence (Q9JMH7 1-418): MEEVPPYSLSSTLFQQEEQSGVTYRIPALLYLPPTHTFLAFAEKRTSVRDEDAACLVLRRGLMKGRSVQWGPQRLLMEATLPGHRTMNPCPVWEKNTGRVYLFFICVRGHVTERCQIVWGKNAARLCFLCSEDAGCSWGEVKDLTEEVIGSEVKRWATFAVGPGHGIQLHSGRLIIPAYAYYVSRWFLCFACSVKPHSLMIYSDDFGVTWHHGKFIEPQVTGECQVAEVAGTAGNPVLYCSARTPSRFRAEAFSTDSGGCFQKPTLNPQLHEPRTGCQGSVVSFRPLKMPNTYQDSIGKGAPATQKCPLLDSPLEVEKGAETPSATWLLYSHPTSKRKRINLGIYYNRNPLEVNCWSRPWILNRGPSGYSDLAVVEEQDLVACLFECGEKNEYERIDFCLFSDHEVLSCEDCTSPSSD
# Test: sialidase activity in transfected COS7 lysate
# Assay type: biochemical
# Conditions: positive control; pH range 2.5-5.5; 37 °C
compound,measurement,value
CC(=O)N[C@H]1[C@H]([C@H](O)[C@H](O)CO)O[C@@](Oc2ccc3c(C)cc(=O)oc3c2)(C(=O)O)C[C@@H]1O [4-MU-NeuAc],sialidase activity in transfected COS7 lysate,pcDNAI-Mm NEU3-HA transfected cells were used as control
